# Data: PMC9298352, “Design, Synthesis and Structural Analysis of Glucocerebrosidase Imaging Agents” (Chemistry (Weinheim an Der Bergstrasse, Germany), 2021)
# Target: T1, rhGBA (Homo sapiens, UniProt P04062)
# T1 construct: made in house; host or cells: insect-baculovirus expression vector system (BEVS)
# T1 sequence (P04062 40-536): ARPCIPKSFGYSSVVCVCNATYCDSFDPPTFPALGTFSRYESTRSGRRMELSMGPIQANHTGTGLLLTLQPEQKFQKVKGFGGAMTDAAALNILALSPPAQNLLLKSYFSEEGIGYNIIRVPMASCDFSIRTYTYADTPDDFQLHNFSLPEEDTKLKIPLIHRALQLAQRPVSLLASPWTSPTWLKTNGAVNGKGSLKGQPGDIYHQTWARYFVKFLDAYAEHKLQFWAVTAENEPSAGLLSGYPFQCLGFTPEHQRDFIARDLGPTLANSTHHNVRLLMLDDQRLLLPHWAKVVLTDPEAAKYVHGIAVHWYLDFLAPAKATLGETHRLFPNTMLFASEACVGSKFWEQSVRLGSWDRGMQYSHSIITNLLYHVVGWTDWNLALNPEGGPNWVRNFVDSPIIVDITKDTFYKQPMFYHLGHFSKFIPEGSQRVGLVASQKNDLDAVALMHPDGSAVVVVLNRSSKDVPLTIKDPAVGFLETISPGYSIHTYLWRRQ
# Assay: pH dependent activity-based labelling of rhGBA by ABP 6 and ABP 9
# Type: biochemical
# Details: rhGBA 200 nM, ABP 150 nM, pH 4.5, 5.2 or 7.4, 37 °C, 30 mins
# Protocol: Cy5 tetrazine 20 (2.83 mg, 4.3 µmol) was added to a solution of norbornene 19 (0.94 mg, 2.38 µmol) in MeOH (4 mL). After stirring overnight at rt, the reaction mixture was concentrated in vacuo and purified by HPLC under neutral conditions (A: 50 mM NH4HCO3 in H2O; B: MeCN; 49% → 52%, A in B) yielding ABP 7 (2.12 mg, 2.07 µmol, 87%) as a mixture of regioisomers.
# Biochemical Methods: General Experimental Details
# Recombinant human GBA (rhGBA, imiglucerase, Cerezyme®) and GAA (rhGAA, alglucosidase alfa, Myozyme) were obtained from Sanofi Genzyme (Cambridge, MA, USA). HEK293T (CRL-3216) cell lines were purchased from ATCC (Manassas, VA, USA). […] All the tissue lysates were prepared in potassium phosphate lysis buffer (25 mM in pH 6.5, supplemented with 0.1% (v/v) Triton X-100 and protease inhibitor 1x cocktail (Roche)) via homogenization with silent crusher S equipped with Typ 7 F/S head (30 rpm x 1000, 3 × 7 sec) on ice and lysate concentration was determined with Bicinchoninic acid (BCA) Protein Assay Kit (PierceTM)[7]. […]
# ABP 9 were diluted with DMSO into various concentrations (200x of the final concentration), and 5 µL of ABP at different concentrations were added into 1 mL fresh medium containing cells and incubated at 37°C for 24 h. […] The protein concentrations were determined using BCA kit. […]
smiles,measurement,value
CCCCCCCCN1[C@@H]2[C@H](Cn3cc(CNC(=O)CCCCC[N+]4=C(/C=C/C=C/C=C5/N(C)c6ccccc6C5(C)C)C(C)(C)c5ccccc54)nn3)[C@@H](O)[C@H](O)[C@@H](O)[C@@H]21 (stereo partly shown) [ABP 6],pH dependence of rhGBA labelling,greater labelling at acidin pH (4.5 and 5.2)
